Results as given in patent US20060223846A1, “Aza-bridged-bicyclic amino acid derivatives as alpha4 integrin antagonists” (priority 2005, published 2006).

System: α4β7 integrin-positive cells
Test: Intraperitoneal Delayed Type Hypersensitivity (IP-DTH) Response, ovalbumin challenge
Type: in vivo
Details: 80 mg/kg, sc, qd × 2; mice, 48 hours after antigen challenge
Text: Intraperitoneal Delayed Type Hypersensitivity (IP-DTH) Response. A Method for Analyzing Effects of Integrin Antagonists In Vivo
Background: Integrin antagonists are meant to interfere with the binding or adhesion of immune cells, such as lymphocytes, monocytes and eosinophils that bear integrin receptors to counter-receptors that exist on endothelial cells in the vasculature. Among those integrin-bearing cells, cells that are positive for α4β7 integrin are found in the mesenteric system and in the gut, and would comprise many of the cells recruited to a peritoneal antigen challenge. One can maximize the number of α4β7 integrin-positive cells recruited by inducing an intraperitoneal delayed type hypersensitivity response to antigen that will recruite antigen-responsive cells from the mesenteric lymph nodes. An inhibitor of α4β7 integrin should prevent the recruitment of these cells to the site of antigen challenge. […]
The cells were stained with fluorochrome-coupled antibody to α4β7 integrin or a primary antibody to α4β7 integrin followed by a secondary fluorochrome-coupled antibody. […] The cells were then transferred to test tubes and maintained at 4° C. until analyzed by flow cytometry to determine numbers of α4β7-postive cells. […]

| SMILES | Percent Decrease in recruited α4β7+ cells [%] |
| --- | --- |
| O=C(Nc1ccc(CC(NC(=O)C2C3CCC(CC3)N2C(=O)Cc2ccsc2)C(=O)O)cc1)c1c(Cl)cncc1Cl (centres unmarked) [Cpd 3] | 20 |
| CC(C)(C)CCN1C2CCC(CC2)[C@H]1C(=O)N[C@@H](Cc1ccc(NC(=O)c2c(Cl)cncc2Cl)cc1)C(=O)O [Cpd 16, 3-{4-[(3,5-dichloro-pyridine-4-carbonyl)-amino]-phenyl}-2-{[2-(3,3-dimethyl-butyl)-2-aza-bicyclo[2.2.2]octane-3-carbonyl]-amino}-propionic acid] | 56 |
